Experimental data reported in patent US20220389077A1, “ALLOGENEIC CELL COMPOSITIONS AND METHODS OF USE” (Poseida Therapeutics, Inc., priority 2018, published 2022).
Read-outs that look alike come from different tables or passages of the source.

T1: human CD58 (human, UniProt P19256 29-250)
T1 construct: whole, on cells
T1 sequence (looked up): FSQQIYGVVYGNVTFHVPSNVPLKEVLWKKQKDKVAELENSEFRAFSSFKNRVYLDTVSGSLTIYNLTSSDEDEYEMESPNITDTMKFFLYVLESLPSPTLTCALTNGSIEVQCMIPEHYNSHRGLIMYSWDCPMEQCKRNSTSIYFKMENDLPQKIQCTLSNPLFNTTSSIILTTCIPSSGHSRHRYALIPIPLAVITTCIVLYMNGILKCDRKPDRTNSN


Assays:
cells [1] = assay: AP1903 amount needed in vitro for effective signaling of cells; type: cell-based; settings: 1600 Da MW
Method: The fixed dose of AP1903 for injection used, for example, may be 0.4 mg/kg intravenously infused over 2 hours. The amount of AP1903 needed in vitro for effective signaling of cells is 10-100 nM (1600 Da MW). This equates to 16-160 μg/L or ^˜0.016-1.6 μg/kg (1.6-160 μg/kg). Doses up to 1 mg/kg were well-tolerated in the Phase I study of AP1903 described above. Therefore, 0.4 mg/kg may be a safe and effective dose of AP1903 for this Phase I study in combination with the therapeutic cells.

cells [2] = settings: cited from earlier work
[3] = cited from earlier work
human CD58 = target: T1, human CD58; assay: inferred from T-cell degranulation (CD107a) against K562/Rat2 cells overexpressing human CD58
Method: FIG. 23D is a series of flow cytometry plots showing the expression of CD48, CD58 or CD59 on K562 and Rat2 cells. To confirm possible ligands for the CSR WT CD2z molecule, a panel of known and suspected ligands including human CD48, CD58, and CD59 were tested. Degranulation of engineered T cells was evaluated against the cell lines K562 and Rat2 that were made to overexpress the target ligands and confirmed for expression by FACS staining. Red histograms are unstained cells and blue histograms are cells that were electroporated/lipofected with mRNA and then stained for expression of the respective marker by FACS.
FIG. 23E is a bar graph showing that CSR CD2z recognizes human CD58, but not CD48 or CD59. To confirm possible ligands for the CSR WT CD2z molecule, a panel of known and suspected ligands including human CD48, CD58, and CD59 were tested. Degranulation of engineered T cells was evaluated against the cell lines K562 and Rat2 that were made to overexpress the target ligands and confirmed for expression by FACS staining. Cells were electroporated/lipofected with mRNA and then stained for expression of the respective marker by FACS. […] T cell degranulation is a surrogate of T cell killing that can be measured by FACS staining for intracellular CD107a expression following coculture with target cell lines expressing target antigen. […]

| Molecule | amount needed for effective signaling, converted (cells [1]) [µg/L] | amount needed in vitro for effective signaling of cells (cells [2]) [nM] | plasma levels versus dose ([3]; 0.01, 0.05, 0.1, 0.5 and 1.0 mg/kg) | mean Cmax ([3]; 0.01-1.0 mg/kg dose range, IV over 2 hours) [ng/mL] | plasma level as % of maximal concentration ([3]; 0.5 hours post-dose) | plasma level as % of maximal concentration ([3]; 2 hours post-dose) [%] | plasma level as % of maximal concentration ([3]; 10 hours post-dose) [%] | well-tolerated doses ([3]; Phase I study) | binding result (human CD58) |
| --- | --- | --- | --- | --- | --- | --- | --- | --- | --- |
| CC[C@H](C(=O)N1CCCC[C@H]1C(=O)O[C@H](CCc1ccc(OC)c(OC)c1)c1cccc(OCC(=O)NCCNC(=O)COc2cccc([C@@H](CCc3ccc(OC)c(OC)c3)OC(=O)[C@@H]3CCCCN3C(=O)[C@@H](CC)c3cc(OC)c(OC)c(OC)c3)c2)c1)c1cc(OC)c(OC)c(OC)c1 (relative stereo) [AP1903, 2-Piperidinecarboxylic acid, 1-[(2S)-1-oxo-2-(3,4,5-trimethoxyphenyl)butyl]-, 1,2-ethanediylbis[imino(2-oxo-2,1-ethanediyl)oxy-3,1-phenylene[(1R)-3-(3,4-dimethoxyphenyl)propylidene]]ester, [2S-[1(R*),2R*[S*[S*[1(R*),2R*]]]]]-(9Cl)] | 16 to 160 | 10 to 100 | directly proportional to dose | 10 to 1275 | approximately 18% | ~7 | ~1 | up to 1 mg/kg | – |
| CSR CD2z (chimeric stimulatory receptor: CD2 extracellular, transmembrane and cytoplasmic domains fused to the CD3z intracellular domain) (receptor, Expressed from mRNA on the surface of primary human T cells (degranulation assays) or K562 cells (staining); also called CSR WT CD2z; WT CD2z CSR) KEITNALETWGALGQDINLDIPSFQMSDDIDDIKWEKTSDKKKIAQFRKEKETFKEKDTYKLFKNGTLKIKHLKTDDQDIYKVSIYDTKGKNVLEKIFDLKIQERVSKPKISWTCINTTLTCEVMNGTDPELNLYQDGKHLKLSQRVITHKWTTSLSAKFKCTAGNKVSKESSVEPVSCPEKGLDIYLIIGICGGGSLLMVFVALLVFYITKRKKQRSRRNDEELETRAHRVATEERGRKPHQIPASTPQNPATSQHPPPPPGHRSQAPSHRPPPPGHRVQHQPQKRPPAPSGTQVHQQKGPPLPRPRVQPKPPHGAAENSLSPSSNRVKFSRSADAPAYKQGQNQLYNELNLGRREEYDVLDKRRGRDPEMGGKPRRKNPQEGLYNELQKDKMAEAYSEIGMKGERRRGKGHDGLYQGLSTATKDTYDALHMQALPPR | – | – | – | – | – | – | – | – | binds |
